The text below walks through data of patent EP0584223B1, “NOVEL IMMUNOSUPPRESSIVE COMPOUNDS” (VERTEX PHARMACEUTICALS INCORPORATED, priority 1991, dated 1992).

For assay [1], the system named is human peripheral blood lymphocytes (PBC). Nature of the assay: Mitogenesis assay, PMA plus ionomycin stimulated proliferation. The conditions noted are these: Lymphocyte, read-out: PMA. It counts as cell-based.
Excerpt: (§4) Fresh peripheral blood lymphocytes (PBLs) from LeukoPak cells or whole blood from random normal blood donors (tested HIV-negative and hepatitis negative) are isolated and separated by density centrifugation over Histopaque 1077 (Sigma Chemical Co., St. Louis, MO). […] The human allogeneic B cell lines used for activation of the fresh PBLs are EBV-transformed lymphocytes from normal healthy adult donors with two completely different HLA haplotypes. All cell lines were routinely tested for the presence of Mycoplasma contamination using the Gibco Mycotect test kit and are Mycoplasma-free. Culture medium consists of RPMI 1640 (Gibco, Grand Island, NY) containing penicillin (50 U/ml) and streptomycin (50 µg/ml), L-glutamine 2 mM, 2 mercaptoethanol (5 x 10^-5), 10% heat-inactivated FCS and 10 mM HEPES.
A further assay has as its target FKBP (Homo sapiens, UniProt P62942). Description: Inhibition of FKBP PPIase (rotamase) activity, chymotrypsin-coupled assay. Particulars: apparent Ki. The assay is classed as biochemical. From the text:
The inhibition of the PPIase (rotamase) enzyme activity of the FKBP (apparent "Ki" values) can also be measured according to the methods described by either Harding, M.W. et al., Nature 341:758-760 (1989) or Siekierka, J.J. et al., Nature 341:755-757 (1989). The cis-trans isomerization of the […] peptide bond in a model substrate, N-succinyl-Ala-Ala-Pro-Phe-p-nitroanilide, is monitored spectrophotometrically in a coupled assay with chymotrypsin, which releases 4-nitroanilide from the trans form of the substrate. Fischer, G. et al., Nature 337:476-478 (1989). The inhibitory effect of the addition of different concentrations of inhibitor on the extent of the reaction is determined, and analysis of the change in first order rate constant as a function of inhibitor concentration yields an estimate of the apparent Ki value.

Assay [2] relates to PBLs stimulated with JVM human viral-transformed B lymphoblastoid cell line. Nature of the assay: MLR bioassay, PBLs stimulated with JVM cells. It counts as cell-based. Particulars: mixed lymphocyte reaction, JVM stimulator cells, inhibition of proliferation, read-out: JVM. From the text: (§1) Fresh peripheral blood lymphocytes (PBLs) from LeukoPak cells or whole blood from random normal blood donors (tested HIV-negative and hepatitis negative) are isolated and separated by density centrifugation over Histopaque 1077 (Sigma Chemical Co., St. Louis, MO). The murine CTLL cytotoxic T cell line and the human Jurkat T cell line are from ATCC (CTLL-2 ATCC TIB214, JURKAT CLONE E6-1 ATCC TIBl52). The human allogeneic B cell lines used for activation of the fresh PBLs are EBV-transformed lymphocytes from normal healthy adult donors with two completely different HLA haplotypes. All cell lines were routinely tested for the presence of Mycoplasma contamination using the Gibco Mycotect test kit and are Mycoplasma-free. Culture medium consists of RPMI 1640 (Gibco, Grand Island, NY) containing penicillin (50 U/ml) and streptomycin (50 µg/ml), L-glutamine 2 mM, 2 mercaptoethanol (5 x 10^-5), 10% heat-inactivated FCS and 10 mM HEPES.
(§2) All chemical stocks were dissolved in DMSO.
(§3) Antigen activated proliferation of PBLs in a primary mixed lymphocyte reaction was assessed in the presence or absence of different concentrations of tested compounds and control drugs. 5 x 10^4 fresh PBLs were stimulated with 5 x 10^3 of Mitomycin C treated-allogeneic EBV-transformed […] cells, LB and JVM, in a final volume of 200 µl per well in 96-well round-bottomed plates (Mishell, B.B. and S.M. Shiigi, Selected Methods in Cellular Immunology W.H. Freeman and Co., San Francisco, CA (1980); Nelson, P.A. et al., Transplantation 50:286 (1990)). Cultures were pulsed on day 6, harvested 24 h later and counted as in previous section.

Assay [3] deals with CTLL-20 murine T cell line. Description: IL-2 microassay, IL-2 dependent CTLL proliferation. It counts as cell-based. Particulars: Mus musculus; inhibition of proliferation of cytotoxic T cells stimulated by IL-2; read-out: CTLL.
Excerpt: as §4
Assay [4] deals with PBLs stimulated with LB human viral-transformed B lymphoblastoid cell line. Description: MLR bioassay, PBLs stimulated with LB cells. The assay is classed as cell-based. Particulars: mixed lymphocyte reaction, LB stimulator cells, inhibition of proliferation, read-out: LB.
Excerpt: as §1, §2, §3

The test system of assay [5] is human peripheral blood lymphocytes (PBC). Nature of the assay: Mitogenesis assay, OKT3 stimulated proliferation. It counts as cell-based. Particulars: Lymphocyte, OKT3 (10^-4 dilution final), inhibition of proliferation, 3H-thymidine, read-out: OKT3.
Excerpt: as §4

A value given as a limit tells only on which side of the number the result lay.

Sequence of FKBP (P62942 whole entry): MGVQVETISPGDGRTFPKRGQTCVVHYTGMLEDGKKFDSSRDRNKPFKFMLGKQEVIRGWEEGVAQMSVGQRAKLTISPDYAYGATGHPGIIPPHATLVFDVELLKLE

Turning to `COc1cc(C(=O)C(=O)N2CCCC[C@H]2C(=O)OC(CCCc2ccccc2)c2cccc(Oc3ccccc3)c2)cc(OC)c1OC` (mixture of isomers) [Compound 4, (R and S)-1-(3-Phenoxy)phenyl-4-phenyl-1-butyl (S)-N-(3,4,5-trimethoxyphenylglyoxyl)pipecolate], the IC50 in assay [1] (3 h), in assay [2], in assay [3], in assay [4] and in assay [5] was more than 10 µM throughout. Also, at FKBP, the Ki came to 0.22 µM.
For the compound `COc1cc(C(=O)C(=O)N2CCCC[C@H]2C(=O)OC(CCCc2ccccc2)CCc2cccnc2)cc(OC)c1OC` (mixture of isomers) [Compound 7, (R and S)-6-Phenyl-1-(3-pyridyl)-3-hexyl (S)-N-(3,4,5-trimethoxyphenylglyoxyl)pipecolate], the IC50 was 2 µM in assay [1] (3 h); 5 µM in assay [2]; 2 µM in assay [3]; 5 µM in assay [4]; 2 µM in assay [5].
Take `COc1cc(C(=O)C(=O)N2CCCC[C@H]2C(=O)OC(CCCc2ccccc2)CCCc2cccnc2)cc(OC)c1OC` (mixture of isomers) [Compound 9, (R and S)-1-Phenyl-7-(3-pyridyl)-4-heptyl (S)-N-(3,4,5-trimethoxyphenylglyoxyl)pipecolate]: the IC50 was 1.8 µM in assay [1] (3 h); 6 µM in assay [2]; 2.5 µM in assay [3]; 6 µM in assay [4]; 1.2 µM in assay [5].
As to `COc1cc(C(=O)C(=O)N2CCCC[C@H]2C(=O)OC(CCCc2c[nH]c3ccccc23)Cc2ccccc2)cc(OC)c1OC` (mixture of isomers) [Compound 11, (R and S)-5-(3-indolyl)-1-phenyl-2-pentyl (S)-N-(3,4,5-trimethoxyphenylglyoxyl)pipecolate], the IC50 in assay [1] (3 h) stood at 2.7 µM; in assay [2] it was 6.5 µM; in assay [3], 10 µM; in assay [4], 3.5 µM; in assay [5], 2 µM. In addition, the Ki at FKBP was found to be 0.024 µM.
Turning to `COc1cc(C(=O)C(=O)N2CCCC[C@H]2C(=O)OCC(CCc2ccccc2)Cc2ccccc2)cc(OC)c1OC` (mixture of isomers) [Compound 16, (R and S)-2-Benzyl-4-phenyl-1-butyl (S)-N-(3,4,5-trimethoxyphenylglyoxyl)pipecolate], the IC50 in assay [1] (3 h) is 5 µM; in assay [2], more than 10 µM; in assay [3], 6 µM; in assay [4], 9 µM; in assay [5], 7 µM. Moreover, the Ki at FKBP was 0.057 µM.
Consider `CC(C)(C)C(=O)C(=O)N1CCCC[C@H]1C(=O)OC(CCCc1ccccc1)CCCc1ccccn1` (mixture of isomers) [Compound 21, (R and S)-1-Phenyl-7-(2-pyridyl)-4-heptyl (S)-N-(tert-butylglyoxyl)-pipecolate], for which the IC50 in assay [1] (3 h) worked out at 7 µM; in assay [2], 7 µM; in assay [3], 4 µM; in assay [4] it was 6 µM; in assay [5] it was 3 µM. Further, the Ki on FKBP is 0.036 µM.
In the case of `COc1cc(C(=O)C(=O)N2CCCC[C@H]2C(=O)OC(CCCc2ccccc2)CCCc2ccc[n+]([O-])c2)cc(OC)c1OC` (mixture of isomers) [Compound 22, (R and S)-1-Phenyl-7-(3-pyridyl)-4-heptyl (S)-N-(3,4,5-trimethoxyphenylglyoxyl)pipecolate N-oxide], the IC50 in assay [1] amounted to 1.5 µM; in assay [2], 2.5 µM; in assay [3], 2.3 µM; in assay [4], 2.2 µM; in assay [5], 1.6 µM.
For `COc1cc(C(=O)C(=O)N2CCC[C@H]2C(=O)OC(CCCc2ccccc2)CCCc2ccccn2)cc(OC)c1OC` (stereo partly shown) [Compound 2], the IC50 in assay [1] (3 h) is 3.5 µM; in assay [2] it was 7 µM; in assay [3], 4 µM; in assay [4], 8 µM; in assay [5] it was 1.5 µM. Besides, the Ki on FKBP was determined as 0.095 µM.
Take `COc1cc(C(=O)C(=O)N2CCCC[C@H]2C(=O)OC(CCCc2ccccc2)CCCc2ccccc2)cc(OC)c1OC` [Compound 3, (S)-1,7-Diphenyl-4-heptanyl N-(3,4,5-trimethoxyphenylglyoxyl)pipecolate]: the IC50 in assay [1] (3 h) was more than 8 µM; in assay [2] it was 8.5 µM; in assay [3], 8 µM; in assay [4], 10 µM; in assay [5], 2.25 µM.
Turning to `COc1cc(C(=O)C(=O)N2CCCC[C@H]2C(=O)OC(CCCc2ccccc2)Cc2ccccc2)cc(OC)c1OC` (stereo partly shown) [Compound 10], the IC50 amounted to 5.5 µM in assay [1] (3 h); 8 µM in assay [2]; 6 µM in assay [3]; 5.5 µM in assay [4]; 4 µM in assay [5]. The Ki on FKBP was 0.032 µM.
For the compound `COc1cc(C(=O)C(=O)N2CCCC[C@H]2C(=O)OC(CCCc2ccccc2)CCc2ccccc2)cc(OC)c1OC` (stereo partly shown) [Compound 12], the IC50 in assay [1] (3 h) was determined as 7 µM; in assay [2], 10 µM; in assay [3], 8.1 µM; in assay [4], 10 µM; in assay [5], 5 µM. Moreover, the Ki at FKBP was determined as 0.083 µM.
On to `COc1ccc(CCC(CCCc2ccccc2)OC(=O)[C@@H]2CCCCN2C(=O)C(=O)c2ccccc2)cc1` (stereo partly shown) [Compound 14], for which the IC50 in assay [1] (3 h), in assay [2], in assay [3], in assay [4] and in assay [5] was more than 10 µM throughout. Also, the Ki at FKBP is 0.27 µM.
For `COc1cc(C(=O)C(=O)N2CCCC[C@H]2C(=O)OC(CCCc2ccccc2)CCCn2cnc3ccccc32)cc(OC)c1OC` (stereo partly shown) [Compound 15], the IC50 came to 3 µM in assay [1]; 8 µM in assay [2]; 5 µM in assay [3]; 6 µM in assay [4]; 3 µM in assay [5].
`O=C(C(=O)N1CCCC[C@H]1C(=O)OC(CCCc1ccccc1)CCCc1cccnc1)c1ccccc1` (stereo partly shown) [Compound 18]: the IC50 in assay [1] (3 h) came to 5 µM; in assay [2], 9 µM; in assay [3] it was 7 µM; in assay [4], 8 µM; in assay [5], 7 µM. The Ki on FKBP was 0.056 µM.
Take `O=C(C(=O)N1CCCC[C@H]1C(=O)OC(CCCc1ccccc1)CCCc1ccccn1)c1ccccc1` (stereo partly shown) [Compound 19]: the IC50 in assay [1] (3 h) is 6 µM; in assay [2], 10 µM; in assay [3] it was 5 µM; in assay [4], 10 µM; in assay [5], 8 µM. In addition, the Ki on FKBP was found to be 0.05 µM.
In the case of `COc1cc(C(=O)C(=O)N2CCCC[C@H]2C(=O)OC(CCCc2ccccc2)CCCn2ccc3cccnc32)cc(OC)c1OC` (stereo partly shown) [Compound 23], the IC50 in assay [1] was 5 µM; in assay [2], 6 µM; in assay [3], 3.5 µM; in assay [4], 7 µM; in assay [5], 7 µM.
On to `O=C(C(=O)N1CCCC[C@H]1C(=O)OC(CCCc1ccccc1)CCCc1cccnc1)c1cccc(OCc2ccccc2)c1` (stereo partly shown) [Compound 27], for which the IC50 was found to be 6 µM in assay [1] (3 h); 6 µM in assay [2]; 5 µM in assay [3]; 10 µM in assay [4]; 4 µM in assay [5]. The Ki on FKBP is 0.015 µM.
Take `COc1cc(C(=O)C(=O)N2CCCC[C@H]2C(=O)OC(CCCc2ccccc2)c2ccccc2O)cc(OC)c1OC` (stereo partly shown) [Compound 38]: the IC50 is more than 10 µM in assay [1]; more than 10 µM in assay [2]; more than 10 µM in assay [3]; more than 10 µM in assay [4]; 5 µM in assay [5].
As to `COc1cc(C(=O)C(=O)N2CCCC[C@H]2C(=O)OC(CCCc2ccccc2)c2cccnc2)cc(OC)c1OC` (stereo partly shown) [Compound 39], the IC50 in assay [1] (3 h) was determined as 6 µM; in assay [2] it was 5 µM; in assay [3], 2.5 µM; in assay [5], 5.5 µM. For the same compound, on FKBP, the Ki was 0.01 µM.
